Source: patent publication US20070010498A1, “Method for reducing blood loss associated with cardio-pulmonary bypass surgery” (priority 2005, published 2007)

Test: plasma concentrations of COL-3 in humans
Type: in vivo
Conditions: dose of about 10 to about 20 mg/day

NC(=O)C1=C(O)C[C@@H]2C[C@@H]3Cc4cccc(O)c4C(=O)C3=C(O)[C@]2(O)C1=O [COL-3, 6-demethyl-6-deoxy-4-de(dimethylamino)tetracycline]
plasma concentrations: about 1.0 μg/ml
